ChEMBL document CHEMBL2331372, “Design and synthesis of D₁ agonist/D₂ antagonist for treatment of schizophrenia” (Bioorg Med Chem Lett, 2013)

Columns and labels:
[1] = molecular target: Cytochrome P450 2C9 (Homo sapiens, UniProt P11712); test: Inhibition of CYP2C9 (unknown origin); format: ADME
[2] = molecular target: T1, D(1A) dopamine receptor (Homo sapiens, UniProt P21728); test: Displacement of [3H]SCH23390 from dopamine D1 receptor (unknown origin) expressed in CHO cell membranes after 60 mins
T1 sequence (P21728 whole entry): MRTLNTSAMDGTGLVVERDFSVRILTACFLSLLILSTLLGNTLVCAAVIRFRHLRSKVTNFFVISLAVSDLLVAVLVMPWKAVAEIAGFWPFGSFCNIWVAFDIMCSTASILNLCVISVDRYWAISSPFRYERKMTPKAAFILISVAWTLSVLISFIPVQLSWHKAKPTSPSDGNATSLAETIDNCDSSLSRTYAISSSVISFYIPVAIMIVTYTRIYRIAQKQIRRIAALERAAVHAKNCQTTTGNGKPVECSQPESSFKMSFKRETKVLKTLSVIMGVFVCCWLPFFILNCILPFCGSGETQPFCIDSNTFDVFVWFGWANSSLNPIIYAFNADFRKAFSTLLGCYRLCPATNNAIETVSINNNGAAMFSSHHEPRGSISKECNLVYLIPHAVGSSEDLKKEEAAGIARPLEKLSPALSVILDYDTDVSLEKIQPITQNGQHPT

[3] = molecular target: T1, D(1A) dopamine receptor; test: Agonist activity at dopamine D1 receptor (unknown origin) transfected in CHO cell membranes assessed as increase in cAMP level after 8 mins by flash plate assay in presence of dopamine; format: functional, cell-based
[4] = molecular target: T2, D(2) dopamine receptor (Homo sapiens, UniProt P14416); test: Antagonist activity at dopamine D2 receptor (unknown origin) transfected in CHO cell membranes assessed as inhibition of forskolin-stimulated cAMP level after 10 mins by flash plate assay in presence of dopamine; format: functional, cell-based
T2 sequence (P14416 whole entry): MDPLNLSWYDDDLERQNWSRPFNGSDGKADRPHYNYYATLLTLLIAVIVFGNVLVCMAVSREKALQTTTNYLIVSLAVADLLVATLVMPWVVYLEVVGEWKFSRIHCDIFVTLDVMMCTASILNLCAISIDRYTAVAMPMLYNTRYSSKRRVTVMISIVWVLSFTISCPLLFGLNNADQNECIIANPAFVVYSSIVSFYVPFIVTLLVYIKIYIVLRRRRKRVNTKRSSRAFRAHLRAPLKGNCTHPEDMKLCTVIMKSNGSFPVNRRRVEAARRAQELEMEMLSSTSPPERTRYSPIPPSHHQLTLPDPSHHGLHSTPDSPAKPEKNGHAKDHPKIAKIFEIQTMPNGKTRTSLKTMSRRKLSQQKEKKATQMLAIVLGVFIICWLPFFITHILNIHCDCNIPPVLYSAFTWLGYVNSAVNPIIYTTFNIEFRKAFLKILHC

[5] = molecular target: Cytochrome P450 2D6 (Homo sapiens, UniProt P10635); test: Inhibition of CYP2D6 (unknown origin); format: ADME
Chain of Cytochrome P450 2D6 (P10635 whole entry): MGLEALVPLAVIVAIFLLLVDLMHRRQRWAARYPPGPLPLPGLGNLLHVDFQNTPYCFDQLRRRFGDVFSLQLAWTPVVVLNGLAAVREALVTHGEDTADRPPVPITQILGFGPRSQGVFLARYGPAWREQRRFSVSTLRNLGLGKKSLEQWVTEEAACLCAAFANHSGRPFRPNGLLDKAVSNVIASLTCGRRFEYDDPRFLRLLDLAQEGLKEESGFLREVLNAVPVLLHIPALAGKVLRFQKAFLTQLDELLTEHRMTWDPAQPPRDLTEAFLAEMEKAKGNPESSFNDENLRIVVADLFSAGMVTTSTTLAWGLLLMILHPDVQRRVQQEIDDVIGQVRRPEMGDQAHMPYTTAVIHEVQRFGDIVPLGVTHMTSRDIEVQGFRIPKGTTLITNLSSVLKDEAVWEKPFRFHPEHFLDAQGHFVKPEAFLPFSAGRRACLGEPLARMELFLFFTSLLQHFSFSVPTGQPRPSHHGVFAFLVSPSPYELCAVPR

[6] = molecular target: T3, Cytochrome P450 1A2 (Homo sapiens, UniProt P05177); test: Inhibition of CYP1A2 (unknown origin); format: ADME
T3 sequence (P05177 whole entry): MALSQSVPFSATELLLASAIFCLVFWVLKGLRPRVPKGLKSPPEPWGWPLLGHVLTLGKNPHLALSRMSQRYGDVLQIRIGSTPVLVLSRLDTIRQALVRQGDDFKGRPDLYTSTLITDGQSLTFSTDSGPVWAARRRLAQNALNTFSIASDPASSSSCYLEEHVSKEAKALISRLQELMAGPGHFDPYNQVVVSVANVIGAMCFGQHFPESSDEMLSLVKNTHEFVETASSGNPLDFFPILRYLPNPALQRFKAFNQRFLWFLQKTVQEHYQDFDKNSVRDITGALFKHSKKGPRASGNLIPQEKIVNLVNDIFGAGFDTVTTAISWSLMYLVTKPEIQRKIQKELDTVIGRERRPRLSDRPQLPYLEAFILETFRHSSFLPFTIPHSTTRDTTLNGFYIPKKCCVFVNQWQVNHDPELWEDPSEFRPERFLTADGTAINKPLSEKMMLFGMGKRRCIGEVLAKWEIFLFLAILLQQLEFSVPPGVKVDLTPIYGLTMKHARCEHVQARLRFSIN

[7] = molecular target: Cytochrome P450 3A4 (Homo sapiens, UniProt P08684); test: Inhibition of CYP3A4 (unknown origin); format: ADME
Chain of Cytochrome P450 3A4 (P08684 whole entry): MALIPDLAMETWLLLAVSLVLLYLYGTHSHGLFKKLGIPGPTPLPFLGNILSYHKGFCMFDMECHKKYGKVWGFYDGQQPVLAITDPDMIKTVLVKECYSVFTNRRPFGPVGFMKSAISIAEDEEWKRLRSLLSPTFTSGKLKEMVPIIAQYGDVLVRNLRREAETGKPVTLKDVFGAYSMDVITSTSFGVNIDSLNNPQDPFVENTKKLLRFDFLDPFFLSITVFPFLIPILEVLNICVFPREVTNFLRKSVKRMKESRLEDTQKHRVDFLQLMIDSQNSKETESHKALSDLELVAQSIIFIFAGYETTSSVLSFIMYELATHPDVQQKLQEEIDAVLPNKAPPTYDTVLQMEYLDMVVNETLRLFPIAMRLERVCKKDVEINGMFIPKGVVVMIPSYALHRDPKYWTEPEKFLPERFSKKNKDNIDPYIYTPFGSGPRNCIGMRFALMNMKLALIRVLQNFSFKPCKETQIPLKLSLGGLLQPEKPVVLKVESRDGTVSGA

[8] = test system: Mus musculus; test: In vivo receptor occupancy of dopamine D2 receptor in CD1 mouse striatum assessed as inhibition of [3H]N-methylspiperone binding at 10 mg/kg, sc after 15 mins by scintillation counting analysis; format: functional; settings: route subcutaneous
[9] = molecular target: T2, D(2) dopamine receptor; test: Displacement of [3H]N-methylspiperone from dopamine D2 receptor (unknown origin) expressed in CHO cell membranes after 60 mins
[10] = molecular target: Cytochrome P450 2C19 (Homo sapiens, UniProt P33261); test: Inhibition of CYP2C19 (unknown origin); format: ADME
Chain of Cytochrome P450 2C19 (P33261 whole entry): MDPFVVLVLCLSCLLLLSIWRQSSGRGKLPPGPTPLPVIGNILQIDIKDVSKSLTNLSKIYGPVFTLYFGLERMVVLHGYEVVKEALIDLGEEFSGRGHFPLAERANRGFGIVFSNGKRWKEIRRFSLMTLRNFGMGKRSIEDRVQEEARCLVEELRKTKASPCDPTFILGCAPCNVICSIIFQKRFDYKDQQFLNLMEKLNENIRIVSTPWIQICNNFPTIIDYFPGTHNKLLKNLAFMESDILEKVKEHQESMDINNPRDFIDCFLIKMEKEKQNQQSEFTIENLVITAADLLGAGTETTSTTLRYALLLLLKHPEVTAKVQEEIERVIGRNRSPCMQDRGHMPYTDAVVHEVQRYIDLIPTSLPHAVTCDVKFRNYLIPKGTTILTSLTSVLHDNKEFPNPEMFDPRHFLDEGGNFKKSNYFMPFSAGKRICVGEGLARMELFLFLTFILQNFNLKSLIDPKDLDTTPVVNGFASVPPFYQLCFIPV

[11] = test system: Mus musculus; test: In vivo receptor occupancy of dopamine D1 receptor in CD1 mouse striatum assessed as inhibition of [3H]SCH23390 binding at 10 mg/kg, sc after 15 mins by scintillation counting analysis; format: functional; settings: route subcutaneous

Chain of Cytochrome P450 2C9 (P11712 whole entry): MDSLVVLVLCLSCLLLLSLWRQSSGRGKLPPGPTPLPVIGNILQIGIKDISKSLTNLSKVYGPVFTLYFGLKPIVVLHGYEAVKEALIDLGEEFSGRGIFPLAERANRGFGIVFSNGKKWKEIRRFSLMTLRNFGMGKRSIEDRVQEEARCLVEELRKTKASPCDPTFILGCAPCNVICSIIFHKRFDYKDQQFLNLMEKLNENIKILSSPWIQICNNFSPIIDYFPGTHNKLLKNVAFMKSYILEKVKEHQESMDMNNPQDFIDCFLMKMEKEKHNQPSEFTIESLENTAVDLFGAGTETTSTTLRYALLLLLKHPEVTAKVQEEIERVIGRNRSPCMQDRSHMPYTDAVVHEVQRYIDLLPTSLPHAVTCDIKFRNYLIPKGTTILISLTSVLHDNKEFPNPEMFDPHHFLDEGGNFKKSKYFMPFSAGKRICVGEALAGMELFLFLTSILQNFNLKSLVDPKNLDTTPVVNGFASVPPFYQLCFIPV

inhibition (INH) [1]	Ki [2] [nM]	EC50 ([3]; read-out: EC50) [nM]	IC50 [4] [nM]	IC50 [5] [nM]	inhibition (INH) [6]	inhibition (INH) [7]	Ki [9] [nM]	inhibition (INH) [10]	EC50 ([3]; cho)	SMILES	Occ [8] [%]	Occ [11] [%]
	5.5	11	220				12.3			Cc1cc2c(cc1O)[C@H]1C[C@@](O)(c3ccc(Cl)cc3)CCN1CC2		
	45.9	750	150				132			Cc1cc2c(cc1O)[C@H]1C[C@](O)(c3ccc(Cl)cc3)CCN1CC2		
	244		380				101		Not Active	COc1cc2c(cc1O)[C@H]1C[C@](O)(c3ccc(Cl)cc3)CCN1CC2		

More lines, now with the values behind:

SMILES	inhibition (INH) [1]	Ki [2] [nM]	EC50 ([3]; read-out: EC50) [nM]	IC50 [4] [nM]	IC50 [5] [nM]	inhibition (INH) [6]	inhibition (INH) [7]	Ki [9] [nM]	inhibition (INH) [10]	EC50 ([3]; cho)	Occ [8] [%]	Occ [11] [%]
COc1cc2c(cc1O)[C@H]1C[C@@](O)(c3ccc(OC(F)(F)F)cc3)CCN1CC2	Not Active	2	5	6	840	Not Active	Not Active	4	Not Active		75	95
COc1ccc2c(c1)CCN1CC[C@@](O)(c3ccc(Cl)cc3)C[C@H]21		3340						> 10000		Not Active		
COc1cc2c(cc1O)[C@H]1C[C@@](O)(c3ccc(Cl)cc3)CCN1CC2		4	8					14.8				
COc1ccc2c(c1)CCN1CC[C@](O)(c3ccc(Cl)cc3)C[C@H]21		252		1010				195		Not Active		
